The source of these data is ChEMBL document CHEMBL1126457, “Synthesis of novel targeted pro-prodrugs of anthracyclines potentially activated by a monoclonal antibody galactosidase conjugate (part 1)” (1992).

The assay concerns L1210. The assay can be described thus: Compound was evaluated for cytotoxicity against L1210 murine leukemia cells. In kind it is functional, Mus musculus.
Regarding `COc1cccc2c1C(=O)c1c(O)c3c(c(O)c1C2=O)C[C@@](O)(C(C)=O)C[C@@H]3O[C@H]1C[C@@H](NC(=O)OCc2ccc(O[C@H]3O[C@@H](CO)[C@H](O)[C@H](O)[C@@H]3O)cc2)[C@H](O)[C@H](C)O1`, the Cytotoxicity was more than 1 µg/mL.

`COc1cccc2c1C(=O)c1c(O)c3c(c(O)c1C2=O)C[C@@](O)(C(C)=O)C[C@@H]3O[C@H]1C[C@@H](NC(=O)OCc2ccccc2O[C@H]2O[C@@H](CO)[C@H](O)[C@H](O)[C@@H]2O)[C@H](O)[C@H](C)O1` returned a Cytotoxicity of more than 1 µg/mL.

The compound `COc1cccc2c1C(=O)c1c(O)c3c(c(O)c1C2=O)C[C@@](O)(C(C)=O)C[C@@H]3O[C@H]1C[C@H](N)[C@H](O)[C@H](C)O1` [DAUNORUBICIN] came in with a Cytotoxicity of 0.02 µg/mL.
